The text below walks through data of patent US20250179073A1, “TRICYCLIC HETEROCYCLE COMPOUNDS AS IAP ANTAGONISTS” (Ascentage Pharma (Suzhou) Co., Ltd., priority 2022, published 2025).

For one assay, the system named is MDA-MB-231 cells. Kind of assay: Cell proliferation assay (CellTiter-Glo), MDA-MB-231. Conditions: Homo sapiens, MDA-MB-231, 72 h, 72 h treatment, Celltiter-Glo luminescence. Type of assay: cell-based. In outline: (§1)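 MDA-MB-231 (RPMI-1640/10% FBS) and EVSA-T (MEM/10% FBS) cells, 10000 cells/well, exposed 72 h to compound at […]. Viability read by CellTiter-Glo luminescence after 15 min at room temperature. IC50 from control-normalised curve fitting.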

The test system of another assay is EVSA-T cells. Kind of assay: Cell proliferation assay (CellTiter-Glo), EVSA-T. Type of assay: cell-based. The conditions noted are these: Homo sapiens, EVSA-T, 72 h, 72 h treatment, Celltiter-Glo luminescence. In outline: as §1
In general terms: ATP-based viability assays read luminescence as a measure of living cells.

On to `C[C@@H]1CN(CC(=O)N2CC(C)(C)c3c2cc(Cc2ccc(F)cc2)c2nc(-c4ccn[nH]4)nn32)[C@@H](CN2CCOC[C@H]2C)CN1` [Compound 247, 1-(4-(4-fluorobenzyl)-8,8-dimethyl-2-(1H-pyrazol-5-yl)-7,8-dihydro-6H-pyrrolo[2,3-e][1,2,4]triazolo[1,5-a]pyridin-6-yl)-2-((2R,5R)-5-methy 1-2-(((R)-3-methylmorpholino)methyl)piperazin-1-yl)ethan-1-one], for which the values for the half-inhibitory concentration (IC50) with MDA-MB-231 cells and with EVSA-T cells were 4 nM and 6.2 nM, respectively.
For `COCc1nc2c(Cc3ccc(F)cc3)cc3c(n2n1)C(C)(C)CN3C(=O)CN1C[C@@H](C)NC[C@@H]1CN1CCOC[C@H]1C` [Compound 250, 1-(4-(4-fluorobenzyl)-2-(methoxymethyl)-8,8-dimethyl-7,8-dihydro-6H-pyrrolo[2,3-e][1,2,4]triazolo[1,5-a]pyridin-6-yl)-2-((2R,5R)-5-methy 1-2-(((R)-3-methylmorpholino)methyl)piperazin-1-yl)ethan-1-one] the same measures were 18 nM and 6.1 nM.
For the molecule `C[C@@H]1CN(CC(=O)N2CC(C)(C)c3c2cc(Cc2ccc(F)cc2)c2nc(C(=O)N(C)C)nn32)[C@@H](CN2CCOC[C@H]2C)CN1` [Compound 251, 4-(4-fluorobenzyl)-N,N,8,8-tetramethyl-6-(2-((2R,5R)-5-methyl-2-(((R)-3-methylmorpholino)methyl)piperazin-1-yl)acetyl)-7,8-dihydro-6H-pyrrolo[2,3-e][1,2,4]triazolo[1,5-a]pyridine-2-carboxamide], the IC50 turned out to be 130 nM in the assay with MDA-MB-231 cells and 29.6 nM in the assay on EVSA-T cells.
For `[2H]C([2H])([2H])n1nc2c(Cc3ccc(F)cc3)cc3c(n2c1=O)C(C)(C)CN3C(=O)CN1C[C@@H](C)NC[C@@H]1CN1CCOC[C@H]1C` [Compound 252] the same measures were 32 nM and 5.3 nM.
Taken in the same sequence, the figures for `C[C@@H]1CN(CC(=O)N2CC(C)(C)c3c2cc(Cc2ccc(F)cc2)c2nn(Cc4ccncc4)c(=O)n32)[C@@H](CN2CCOC[C@H]2C)CN1` [Compound 254, 4-(4-fluorobenzyl)-8,8-dimethyl-6-(2-((2R,5R)-5-methyl-2-(((R)-3-methylmorpholino)methyl)piperazin-1-yl)acetyl)-2-(pyridin-4-ylmethyl)-2,6,7,8-tetrahydro-1H-pyrrolo[2,3-e][1,2,4]triazolo[4,3-a]pyridin-1-one] were 69 nM and 3.8 nM.
On to `CC(C)NC(=O)c1nc2c(Cc3ccc(F)cc3)cc3c(n2n1)C(C)(C)CN3C(=O)CN1C[C@@H](C)NC[C@@H]1CN1CCOC[C@H]1C` [Compound 256, 4-(4-fluorobenzyl)-N-isopropyl-8,8-dimethyl-6-(2-((2R,5R)-5-methyl-2-(((R)-3-methylmorpholino)methyl)piperazin-1-yl)acetyl)-7,8-dihydro-6H-pyrrolo[2,3-e][1,2,4]triazolo[1,5-a]pyridine-2-carboxamide], for which the IC50 in the assay with MDA-MB-231 cells was 70 nM; in the assay with EVSA-T cells it was 8.9 nM.
For `C[C@@H]1CN(CC(=O)N2CC(C)(C)c3c2cc(Cc2ccc(F)cc2)c2nc(C(=O)NC4CC4)nn32)[C@@H](CN2CCOC[C@H]2C)CN1` [Compound 257, N-cyclopropyl-4-(4-fluorobenzyl)-8,8-dimethyl-6-(2-((2R,5R)-5-methyl-2-(((R)-3-methylmorpholino)methyl)piperazin-1-yl)acetyl)-7,8-dihydro-6H-pyrrolo[2,3-e][1,2,4]triazolo[1,5-a]pyridine-2-carboxamide] the same measures were 140 nM and 11.6 nM.
For the molecule `CCNC(=O)c1nc2c(Cc3ccc(F)cc3)cc3c(n2n1)C(C)(C)CN3C(=O)CN1C[C@@H](C)NC[C@@H]1CN1CCOC[C@H]1C` [Compound 259, N-ethyl-4-(4-fluorobenzyl)-8,8-dimethyl-6-(2-((2R,5R)-5-methyl-2-(((R)-3-methylmorpholino)methyl)piperazin-1-yl)acetyl)-7,8-dihydro-6H-pyrrolo[2,3-e][1,2,4]triazolo[1,5-a]pyridine-2-carboxamide], the IC50 with MDA-MB-231 cells was 87 nM; in the assay on EVSA-T cells, 15.8 nM.
As to `C[C@@H]1CN(CC(=O)N2CC(C)(C)c3c2cc(Cc2ccc(F)cc2)c2nn(C(C)(C)CO)c(=O)n32)[C@@H](CN2CCOC[C@H]2C)CN1` [Compound 260, 4-(4-fluorobenzyl)-2-(1-hydroxy-2-methylpropan-2-yl)-8,8-dimethyl-6-(2-((2R,5R)-5-methyl-2-(((R)-3-methylmorpholino)methyl)piperazin-1-yl)acetyl)-2,6,7,8-tetrahydro-1H-pyrrolo[2,3-e][1,2,4]triazolo[4,3-a]pyridin-1-one], the values for the IC50 with MDA-MB-231 cells and in the assay with EVSA-T cells were 29 nM and 2.7 nM, respectively.
Turning to `COCC(COC)n1nc2c(Cc3ccc(F)cc3)cc3c(n2c1=O)C(C)(C)CN3C(=O)CN1C[C@@H](C)NC[C@@H]1CN1CCOC[C@H]1C` [Compound 261, 2-(1,3-dimethoxypropan-2-yl)-4-(4-fluorobenzyl)-8,8-dimethyl-6-(2-((2R,5R)-5-methyl-2-(((R)-3-methylmorpholino)methyl)piperazin-1-yl)acetyl)-2,6,7,8-tetrahydro-1H-pyrrolo[2,3-e][1,2,4]triazolo[4,3-a]pyridin-1-one], the IC50 in the assay with MDA-MB-231 cells is 17 nM; in the assay with EVSA-T cells, 3.2 nM.
For `C[C@@H]1CN(CC(=O)N2CC(C)(C)c3c2cc(Cc2ccc(F)cc2)c2nn(CC4(O)CCC4)c(=O)n32)[C@@H](CN2CCOC[C@H]2C)CN1` [Compound 262, 4-(4-fluorobenzyl)-2-((1-hydroxycyclobutyl)methyl)-8,8-dimethyl-6-(2-((2R,5R)-5-methyl-2-(((R)-3-methylmorpholino)methyl)piperazin-1-yl)acetyl)-2,6,7,8-tetrahydro-1H-pyrrolo[2,3-e][1,2,4]triazolo[4,3-a]pyridin-1-one] the same measures were 12.5 nM and 1.3 nM.
For `C[C@@H]1CN(CC(=O)N2CC(C)(C)c3c2cc(Cc2ccc(F)cc2)c2nn(CC(F)(F)F)c(=O)n32)[C@@H](CN2CCOC[C@H]2C)CN1` [Compound 263, 4-(4-fluorobenzyl)-8,8-dimethyl-6-(2-((2R,5R)-5-methyl-2-(((R)-3-methylmorpholino)methyl)piperazin-1-yl)acetyl)-2-(2,2,2-trifluoroethyl)-2,6,7,8-tetrahydro-1H-pyrrolo[2,3-e][1,2,4]triazolo[4,3-a]pyridin-1-one], the IC50 with MDA-MB-231 cells amounted to 27 nM; in the assay on EVSA-T cells it was 8.2 nM.
Taken in the same sequence, the figures for `C[C@@H]1CN(CC(=O)N2CC(C)(C)c3c2cc(Cc2ccc(F)cc2)c2nn(CC(F)F)c(=O)n32)[C@@H](CN2CCOC[C@H]2C)CN1` [Compound 264, 2-(2,2-difluoroethyl)-4-(4-fluorobenzyl)-8,8-dimethyl-6-(2-((2R,5R)-5-methyl-2-(((R)-3-methylmorpholino)methyl)piperazin-1-yl)acetyl)-2,6,7,8-tetrahydro-1H-pyrrolo[2,3-e][1,2,4]triazolo[4,3-a]pyridin-1-one] were 15 nM and 4.7 nM.
For `C[C@@H]1CN(CC(=O)N2CC(C)(C)c3c2cc(Cc2ccc(F)cc2)c2nn(CC(C)(C)O)c(=O)n32)[C@@H](CN2CC3CCC(C2)O3)CN1` [Compound 265, 6-(2-((2R,5R)-2-((8-oxa-3-azabicyclo[3.2.1]octan-3-yl)methyl)-5-methylpiperazin-1-yl)acetyl)-4-(4-fluorobenzyl)-2-(2-hydroxy-2-methylpropyl)-8,8-dimethyl-2,6,7,8-tetrahydro-1H-pyrrolo[2,3-e][1,2,4]triazolo[4,3-a]pyridin-1-one] the same measures were 41 nM and 26.8 nM.
Taken in the same sequence, the figures for `C[C@@H]1CN(CC(=O)N2CC(C)(C)c3c2cc(Cc2ccc(F)cc2)c2nn(CC(C)(C)O)c(=O)n32)[C@@H](CN2CCN(CC(F)(F)F)C[C@H]2C)CN1` [Compound 266, 4-(4-fluorobenzyl)-2-(2-hydroxy-2-methylpropyl)-8,8-dim ethyl-6-(2-((2R,5R)-5-methyl-2-(((R)-2-methyl-4-(2,2,2-trifluoroethyl)piperazin-1-yl)methyl)piperazin-1-yl)acetyl)-2,6,7,8-tetrahydro-1H-pyrrolo[2,3-e][1,2,4]triazolo[4,3-a]pyridin-1-one] were 16 nM and 4.9 nM.
For the molecule `C[C@@H]1CN(CC(=O)N2CC(C)(C)c3c2cc(Cc2ccc(F)cc2)c2nn(CC(C)(C)O)c(=O)n32)[C@@H](CN2CCN(C3COC3)C[C@H]2C)CN1` [Compound 267, 4-(4-fluorobenzyl)-2-(2-hydroxy-2-methylpropyl)-8,8-dimethyl-6-(2-((2R,5R)-5-methyl-2-(((R)-2-methyl-4-(oxetan-3-yl)piperazin-1-yl)methyl)piperazin-1-yl)acetyl)-2,6,7,8-tetrahydro-1H-pyrrolo[2,3-e][1,2,4]triazolo[4,3-a]pyridin-1-one], the IC50 in the assay on MDA-MB-231 cells amounted to 34 nM; in the assay with EVSA-T cells, 19.6 nM.
Take `CC(O)Cn1nc2c(Cc3ccc(F)cc3)cc3c(n2c1=O)C(C)(C)CN3C(=O)CN1C[C@@H](C)NC[C@@H]1CN1CCOC[C@H]1C` (stereo partly drawn) [Compound 269, 4-(4-fluorobenzyl)-2-(2-hydroxypropyl)-8,8-dimethyl-6-(2-((2R,5R)-5-methyl-2-(((R)-3-methylmorpholino)methyl)piperazin-1-yl)acetyl)-2,6,7,8-tetrahydro-1H-pyrrolo[2,3-e][1,2,4]triazolo[4,3-a]pyridin-1-one]: the IC50 in the assay on MDA-MB-231 cells stood at 10 nM; with EVSA-T cells, 5.1 nM.
Taken in the same sequence, the figures for `C[C@@H]1CN(CC(=O)N2CC(C)(C)c3c2cc(Cc2ccc(F)cc2)c2nn(CC(O)C4CC4)c(=O)n32)[C@@H](CN2CCOC[C@H]2C)CN1` (stereo partly drawn) [Compound 270, 2-(2-cyclopropyl-2-hydroxyethyl)-4-(4-fluorobenzyl)-8,8-dimethyl-6-(2-((2R,5R)-5-methyl-2-(((R)-3-methylmorpholino)methyl)piperazin-1-yl)acetyl)-2,6,7,8-tetrahydro-1H-pyrrolo[2,3-e][1,2,4]triazolo[4,3-a]pyridin-1-one] were 51 nM and 11.5 nM.

What is called IC50 is the concentration needed to halve the response being measured.
